Test results published in paper PMC4748415, “Impact of different cell penetrating peptides on the efficacy of antisense therapeutics for targeting intracellular pathogens” (Scientific Reports, 2016).
Where “and” joins values, the source holds several entries; their conditions need not be identical. Equal entries are not always repeated. Entries after “also recorded” stand apart in the source; their conditions may differ. Where two headings read alike, the source gives them in different places. Marks after values point to notes of the source that are not given here.

How the values were obtained:
[1] = test system: cytoplasmic membrane of L. monocytogenes F4244; assay: Calcein leakage assay; type: cell-based, Listeria monocytogenes; conditions: 30 min exposure; PRXR 8 × MIC (8 μM), nisin 5 × MIC (10 μg/ml); fluorescence, n = 3
Experimental: To investigate the effect of PNA on the integrity of the Listeria cell membrane, the leakage of the preloaded fluorescent dye, calcein, was monitored and quantified as described before with a few modifications. Briefly, 20 ml of logarithmic growth phase (OD600 = 1.0, ~10^9 CFU/ml) L. monocytogenes F4244 was centrifuged and bacteria were resuspended in 9 ml of sterile PBS plus 1 ml of BHI. 3 μM of calcein AM dye was added to the bacterial suspension prior to covering the suspension with aluminum foil and incubating for one hour at 37 °C. After 10 minutes centrifugation at 3,000 × g, the supernatant was discarded. The calcein-loaded bacterial cells were resuspended in 30 ml of sterile PBS and 100 μL calcein-loaded bacteria were distributed in a 96-well microtiter plate (in triplicate). PRXR was added in a concentration equal to 8 × MIC (8 μM). Nisin 5 × MIC (10 μg/ml) and sterile water were used as positive and negative controls, respectively. Intensity of fluorescence (calcein leakage) was detected every 5 minutes for 30 minutes using a fluorescence plate reader (FLx800 model BioTek® Instruments, Inc. Winooski, Vermont) with the excitation and emission filters adjusted to 485 nm and 520 nm, respectively.

hly = assay: Real-Time qRT-PCR gene expression, hly; type: cell-based, L. monocytogenes F4244; conditions: 2 μM PTAT, 3.5 hours, 37 °C
plcB = assay: Real-Time qRT-PCR gene expression, plcB; type: cell-based, L. monocytogenes F4244; conditions: 3.5 hours, 37 °C
[2] = test system: clinical isolates of L. monocytogenes; type: cell-based, Listeria monocytogenes; conditions: for MIC50: concentration required to inhibit 50% of L. monocytogenes isolates (six isolates); for MIC: broth microdilution in low binding tubes, triplicates, 16 hour incubation
Experimental: (§1) The MICs of conjugated PNAs, free PNA, CPPs and untreated control against L. monocytogenes were determined using the broth microdilution method according to the Clinical and Laboratory Standards Institute (CLSI) guidelines with the following modifications. Briefly, low binding clear microcentrifuge tubes (USA scientific, Inc. Ocala, FL) were used in triplicates for each reaction instead of traditional 96-well plates. […] After a 16 hour incubation period (of test agent with bacteria), the number of viable bacteria was enumerated by serial dilution and counting on TSA plates. The MICs were repeated at least twice.

L. monocytogenes F4244 [3] = assay: Time kill assay; type: cell-based, Listeria monocytogenes; conditions: 12 hours; for time to complete eradication of Listeria: 32 μM PNA, 37 °C, samples every 2 hours, ~10^5 CFU/ml; for bactericidal or bacteriostatic activity: L. monocytogenes, time kill at 32 μM
Experimental: L. monocytogenes F4244 in logarithmic growth phase was diluted to ~10^5 CFU/ml and incubated with 32 μM of the five PNAs (in triplicates) at 37 °C for 12 hours. Samples were collected every two hours, serially diluted, and plated onto TSA plates. Plates were then incubated wat 37 °C for 24 hours before viable CFUs were determined.
Samples were collected every 20 minutes and processed as above.

L. monocytogenes F4244 [4] = assay: Concentration-dependent bacterial log reduction in pure culture; type: cell-based, Listeria monocytogenes; conditions: for Log CFU/ml: pure culture F4244, 16 hour incubation; for Log CFU reduction: relative to control, pure culture F4244
Experimental: as §1

[5] = test system: mitochondrial biogenesis in J774A.1 cells; assay: Mitobiogenesis assay (In-Cell ELISA, COX-I/SDH-A); conditions: three days, tested at 0.1, 1, 10 and 20 μM, COX-I/SDH-A ratio
Experimental: To measure the effect of PNA on the mitochondrial biogenesis, In-Cell ELISA Kit (MitoSciences Inc., Eugene, OR, USA) was used as per the manufacturer’s instructions[54][55]. Briefly, J774A.1 cells were seeded (approximately 40,000 cells per well) in 96-well plates and allowed to adhere. […] Cells were allowed to grow for approximately 3 days. Media were removed and cells were washed with PBS, then fixed with 4% paraformaldehyde. After fixing, cells were washed with PBS and permeabilization and blocking processes were done according to the manufacturer’s instructions. Primary antibodies to detect the levels of two proteins (subunit I of Complex IV (COX-I), that is mitochondrial DNA (mtDNA)-encoded), and the 70 kDa subunit of Complex II (SDH-A), a nuclear DNA (nDNA)-encoded were added and incubated for overnight at 4 °C. After incubation, cells were washed with PBS and secondary antibodies were added and incubated at room temperature for one hour. After washing, the expression of SDH-A and COX-1 were measured at 405 nm and 600 nm wavelength, respectively. The ratio between COX-I and SDH-A was calculated and the percent of inhibition of mitochondrial biogenesis was determined.

L. monocytogenes F4244 [6] = assay: Time kill assay; type: cell-based, Listeria monocytogenes; conditions: 8 μM PNA, 37 °C, samples every 20 minutes, inoculum 2.4 × 10^5 CFU/ml
rpoA = conditions: 3.5 hours, 37 °C
[7] = test system: L. monocytogenes J0161 in infected C. elegans; assay: C. elegans infection model; conditions: 18 hours treatment; for Log CFUs/worm: 10 worms in triplicates; for Log CFUs reduction: versus water
Experimental: To test the efficacy of PNA in vivo we used Listeria-infected C. elegans. The temperature-sensitive sterile mutant strain C. elegans AU37 [sek-1(km4); glp-4(bn2) I] was used for this study. This strain is sterile at room temperature and can lay eggs only at 15 °C. Furthermore, mutation in the sek-1 gene of the p38 mitogen-activated protein kinase pathway (p38 MAPK pathway), makes this particular C. elegans strain more susceptible to Listeria infection[49][56]. Initially, the pathogenicity of three strains of Listeria (F4244, J0161 and ATCC19111) was tested in C. elegans as described before[24] to determine the most virulent strain to use for this study. […] Briefly, adult worms were grown for 5 days, at 15 °C (temperature that permits worms to lay eggs) on NGM agar plates seeded with a lawn of E. coli OP50. The eggs were harvested by bleaching[57] and maintained for 24 hours at room temperature with gentle agitation for hatching. Hatched larvae were transferred to a new NGM plate seeded with E. coli OP50 and were kept at room temperature for five days until worms reached the adult stage of growth. Adult worms were collected and washed three times with M9 media in a 1:10 ratio to remove E. coli before transfer to LB agar plates seeded with a lawn of L. monocytogenes J0161 for infection. After eight hours of infection, worms were collected and washed with M9 buffer five times before incubation with PNAs. Worms were transferred to low-binding microcentrifuge tubes (10 worms per tube). […] After treatment for 18 hours, worms were washed five times with M9 buffer. […] Samples were serially diluted and plated onto TSA plates containing 5 μg/ml nalidixic acid to select for Listeria.

[8] = test system: L. monocytogenes F4244 inside infected J774A.1 cells; type: cell-based; conditions: 4 hours; for Log CFU/ml: intracellular F4244 in J774A.1; for Log CFU reduction: intracellular F4244 in J774A.1, versus control
plcA = assay: Real-Time qRT-PCR gene expression, plcA; type: cell-based, L. monocytogenes F4244; conditions: 2 μM PTAT, 3.5 hours, 37 °C
MRSA USA300 = assay: MIC against MRSA in pure culture; type: cell-based; conditions: multiple of the Listeria MIC, data not shown

## nisin [reference compound]
[1]
  calcein leakage: more than 72%

## GRKKKRRQRRRYK-O-cgatcattcaaa-NH2 [PTAT, anti-rpoA PNA covalently conjugated to the TAT CPP]
hly
  downregulation of hly gene: more than 50%
plcB; 1 μM PTAT
  reduction in plcB gene expression: 55.9%
plcB; 2 μM PTAT
  decrease of plcB gene expression: more than 70%
[2]
  MIC50: 2 µM
[2]; strain ATCC 13932
  MIC: 4 µM
[2]; strain ATCC 19111
  MIC: 4 µM
[2]; strain ATCC 19112
  MIC: 2 µM
[2]; strain ATCC 19114
  MIC: 0.5 µM
[2]; strain F4244, no turbidity
  MIC: 2 µM
[2]; strain J0161
  MIC: 4 µM
L. monocytogenes F4244 [3]
  time to complete eradication of Listeria: ≤ 2 h
  bactericidal or bacteriostatic activity: bactericidal activity
L. monocytogenes F4244 [4]; 1 µM PNA
  Log CFU/ml: 8.28±0.37 Log CFU/ml
  Log CFU reduction: 1.1 Log CFU
L. monocytogenes F4244 [4]; 2 µM PNA
  Log CFU/ml: 5.94±0.42 Log CFU/ml
  Log CFU reduction: 3.45 Log CFU
L. monocytogenes F4244 [4]; 4 µM PNA
  Log CFU/ml: Cleared
  Log CFU reduction: 9.39 Log CFU
L. monocytogenes F4244 [4]; 8 µM PNA
  Log CFU/ml: Cleared
  Log CFU reduction: 9.39 Log CFU
L. monocytogenes F4244 [4]; 16 µM PNA
  Log CFU/ml: Cleared
  Log CFU reduction: 9.39 Log CFU
L. monocytogenes F4244 [4]; 32 µM PNA
  Log CFU/ml: Cleared
  Log CFU reduction: 9.39 Log CFU
[5]
  inhibition of mitochondrial protein synthesis (mitobiogenesis): does not interfere with the mitochondrial protein synthesis process
L. monocytogenes F4244 [6]
  time to complete elimination of starting inoculum: ≤ 20 min
rpoA; 1 μM PTAT
  percentage of gene expression of rpoA: more than 50%
  reduction in rpoA gene expression: 50% and 43.7%
rpoA; 4 μM PTAT
  percentage of gene expression of rpoA: less than 5%
[7]; 16 µM
  Log CFUs/worm: 3.04±0.36 Log CFUs/worm
  Log CFUs reduction: 1.11 Log CFUs
[7]; 32 µM
  Log CFUs/worm: 1.7±0.6 Log CFUs/worm
  Log CFUs reduction: 2.67 Log CFUs
[8]; 2 μM
  Log CFU/ml: 5.95 ± 0.02 Log CFU/ml
  Log CFU reduction: 0.78 Log CFU
[8]; 4 μM
  Log CFU/ml: 5.19 ± 0.33 Log CFU/ml
  Log CFU reduction: 1.54* Log CFU
[8]; 8 μM
  Log CFU/ml: 4.22 ± 0.11 Log CFU/ml
  Log CFU reduction: 2.51* Log CFU
plcA
  decrease of plcA gene expression: more than 70%

## RXRRXRRXRRXRXB-O-cgatcattcaaa-NH2 [PRXR, anti-rpoA PNA covalently conjugated to the (RXR)4XB CPP]
[2]
  MIC50: 1 µM
[2]; strain ATCC 13932
  MIC: 2 µM
[2]; strain ATCC 19111
  MIC: 1 µM
[2]; strain ATCC 19112
  MIC: 1 µM
[2]; strain ATCC 19114
  MIC: 0.25 µM
[2]; strain F4244, no turbidity
  MIC: 1 µM
[2]; strain J0161
  MIC: 4 µM
L. monocytogenes F4244 [3]
  time to complete eradication of Listeria: ≤ 2 h
  bactericidal or bacteriostatic activity: bactericidal activity
[1]
  calcein leakage: did not result in leakage; also recorded: does not permeabilize the bacterial cell membrane
L. monocytogenes F4244 [4]; 1 µM PNA
  Log CFU/ml: 6.87±0.84 Log CFU/ml
  Log CFU reduction: 2.51 Log CFU
L. monocytogenes F4244 [4]; 2 µM PNA
  Log CFU/ml: 3.15±0.21 Log CFU/ml
  Log CFU reduction: 6.24 Log CFU
L. monocytogenes F4244 [4]; 4 µM PNA
  Log CFU/ml: Cleared
  Log CFU reduction: 9.39 Log CFU
L. monocytogenes F4244 [4]; 8 µM PNA
  Log CFU/ml: Cleared
  Log CFU reduction: 9.39 Log CFU
L. monocytogenes F4244 [4]; 16 µM PNA
  Log CFU/ml: Cleared
  Log CFU reduction: 9.39 Log CFU
L. monocytogenes F4244 [4]; 32 µM PNA
  Log CFU/ml: Cleared
  Log CFU reduction: 9.39 Log CFU
L. monocytogenes F4244 [6]
  time to complete elimination of starting inoculum: ≤ 20 min
[7]; 16 µM
  Log CFUs/worm: 2.24±0.99 Log CFUs/worm
  Log CFUs reduction: 1.91 Log CFUs
[7]; 32 µM
  Log CFUs reduction: 4.38 Log CFUs
[8]; 2 μM
  Log CFU/ml: 4.95 ± 0.07 Log CFU/ml
  Log CFU reduction: 1.78 Log CFU
[8]; 4 μM
  Log CFU/ml: 3.079 Log CFU/ml
  Log CFU reduction: 3.65* Log CFU
[8]; 8 μM
  Log CFU/ml: complete clearance; also recorded: cleared
  Log CFU reduction: 6.73* Log CFU
MRSA USA300
  concentration without inhibition of bacterial growth: > 16 × MIC
